39 molecules from patent US20200288710A1, “SUBSTITUTED SULPHONAMIDES FOR CONTROLLING ANIMAL PESTS” (BAYER CROPSCIENCE AKTIENGESELLSCHAFT, priority 2016, published 2020) can be followed below.

The structures appear in SMILES notation.

Type in all cases: in vivo
One assay has as its system Meloidogyne incognita. Nature of the assay: Meloidogyne incognita test. As to conditions: 336 h, lettuce, after 14 days, read-out: nematicidal efficacy (formation of galls). A digest of the protocol: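 Gall formation on lettuce roots scored after 14 days: 0% means gall count equals untreated control, 100% means none. Sand vessels held the compound (acetone concentrate diluted in water), southern root-knot nematode egg/larvae suspension and lettuce seeds.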

Assay [1] concerns Myzus persicae. Nature of the assay: Myzus persicae oral test. As to conditions: 120 h, 20 ppm, oral uptake, after 5 days, read-out: efficacy. The method, boiled down:
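Aphids of mixed ages imbibe, through parafilm, compound solution (acetone stock, water-diluted) combined with sugar-supplemented IPL41 medium to 200 μl. Efficacy read at day 5 as percent killed, 0% meaning no deaths.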

Assay [2] deals with Myzus persicae. Put plainly: Myzus persicae spray test (Chinese cabbage leaf discs). As to conditions: foliar, 120 h, after 5-6 days, read-out: efficacy. The method, boiled down:
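Formulated compound in acetone/dimethylformamide, diluted in water with 1000 ppm emulsifier, was sprayed onto Brassica pekinensis leaf discs carrying mixed-stage Myzus persicae. Percent mortality was read 5-6 days later (0% = no aphids killed, 100% = all killed).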

`Cn1cc(C(=O)NS(=O)(=O)c2c(Cl)cccc2Br)nc1-c1ncccc1F` [Example 595]: the pest or weed control at 20 ppm in the assay on Meloidogyne incognita amounted to 90%; in the assay with Myzus persicae [1] it was 100%. Further, the pest or weed control at 500 g/ha with Myzus persicae [2] was 90%.
On to `Cc1cc(C(=O)NS(=O)(=O)c2ccccc2Cl)nn1-c1ncccc1Cl` [Example 273], for which the pest or weed control at 20 ppm stood at 90% in the assay with Meloidogyne incognita and 100% in the assay with Myzus persicae [1]. In addition, in the assay with Myzus persicae [2], the pest or weed control at 500 g/ha was determined as 100%.
Turning to `Cc1ccsc1S(=O)(=O)NC(=O)c1cn(C)c(-c2cccc(Cl)c2Cl)n1` [Example 560], the pest or weed control at 20 ppm in the assay on Meloidogyne incognita and in the assay on Myzus persicae [1] was 100% throughout. In addition, the pest or weed control at 500 g/ha with Myzus persicae [2] was 100%.
Consider `Cn1cc(C(=O)NS(=O)(=O)c2ccccc2Br)nc1-c1c(F)cccc1F` [Example 119], for which the pest or weed control at 20 ppm with Meloidogyne incognita amounted to 90%; with Myzus persicae [1], 100%. Moreover, in the assay with Myzus persicae [2], the pest or weed control at 500 g/ha amounted to 100%.
In the case of `CCSc1ccccc1S(=O)(=O)NC(=O)c1cn(C)c(-c2c(F)cccc2F)n1` [Example 169], the pest or weed control at 20 ppm in the assay on Meloidogyne incognita came to 90%; in the assay with Myzus persicae [1], 100%. Moreover, the pest or weed control at 500 g/ha in the assay with Myzus persicae [2] was 100%.
In the case of `COc1ccc(Cl)cc1S(=O)(=O)NC(=O)c1cn(C)c(-c2c(F)cccc2F)n1` [Example 393], the pest or weed control at 20 ppm with Meloidogyne incognita is 90%; in the assay with Myzus persicae [1], 100%. Further, the pest or weed control at 500 g/ha in the assay on Myzus persicae [2] stood at 100%.
Turning to `Cn1cc(C(=O)NS(=O)(=O)c2cccc(Cl)c2)nc1-c1c(F)cccc1F` [Example 45], the figures for the pest or weed control at 20 ppm in the assay on Meloidogyne incognita and in the assay with Myzus persicae [1] were 100% and 90%, respectively. In addition, in the assay on Myzus persicae [2], the pest or weed control at 500 g/ha came out at 90%.
As to `Cn1cc(C(=O)NS(=O)(=O)c2cccc3c2OC(F)(F)C(F)(F)O3)nc1-c1c(F)cccc1F` [Example 312], the pest or weed control at 20 ppm is 90% in the assay on Meloidogyne incognita and 100% in the assay on Myzus persicae [1]. The pest or weed control at 500 g/ha in the assay with Myzus persicae [2] was found to be 90%.
Turning to `Cc1cc(C(=O)NS(=O)(=O)c2ccccc2Br)nn1-c1c(F)cccc1F` [Example 257], the values for the pest or weed control at 20 ppm with Meloidogyne incognita and in the assay with Myzus persicae [1] were 90% and 100%, respectively. The pest or weed control at 500 g/ha in the assay with Myzus persicae [2] came to 90%.
Consider `Cc1ccsc1S(=O)(=O)NC(=O)c1cn(C)c(-c2c(F)cccc2F)n1` [Example 184], for which the pest or weed control at 20 ppm in the assay with Meloidogyne incognita and in the assay on Myzus persicae [1] was 100% each time. In addition, the pest or weed control at 500 g/ha with Myzus persicae [2] was 90%.
For `Cc1c(C(=O)NS(=O)(=O)c2ccccc2)nc(-c2ccccc2Cl)n1C` [Example 39], the pest or weed control at 20 ppm with Meloidogyne incognita and in the assay on Myzus persicae [1] was 90% throughout. The pest or weed control at 500 g/ha in the assay with Myzus persicae [2] was 90%.
Regarding `CCc1ccccc1-c1nc(C(=O)NS(=O)(=O)c2ccccc2C)cn1C` [Example 497], the pest or weed control at 20 ppm with Meloidogyne incognita amounted to 90%; in the assay on Myzus persicae [1], 100%. Also, in the assay with Myzus persicae [2], the pest or weed control at 500 g/ha turned out to be 90%.
`Cc1ccccc1S(=O)(=O)NC(=O)c1cc(C)n(-c2ccccc2Cl)n1` [Example 272]: the pest or weed control at 20 ppm in the assay on Meloidogyne incognita and with Myzus persicae [1] was 100% throughout. For the same molecule, in the assay on Myzus persicae [2], the pest or weed control at 500 g/ha was 100%.
On to `CCc1ccc(C)c(S(=O)(=O)NC(=O)c2cn(C)c(-c3c(F)cccc3F)n2)c1` [Example 395], for which the pest or weed control at 20 ppm with Meloidogyne incognita and in the assay with Myzus persicae [1] was 90% in each case. Also, in the assay with Myzus persicae [2], the pest or weed control at 500 g/ha came out at 100%.
As to `O=C(NS(=O)(=O)c1c(Cl)cccc1Cl)c1cc(-c2ncccc2Cl)n(-c2ccccc2Cl)n1` [Example 266], the pest or weed control at 20 ppm with Meloidogyne incognita came to 90%; in the assay on Myzus persicae [1], 100%. Also, the pest or weed control at 500 g/ha in the assay with Myzus persicae [2] is 90%.
Consider `COc1cc(C(=O)NS(=O)(=O)c2ccccc2Cl)nn1-c1ccccc1Cl` [Example 275], for which the pest or weed control at 20 ppm in the assay with Meloidogyne incognita and in the assay on Myzus persicae [1] was 100% throughout. Further, in the assay on Myzus persicae [2], the pest or weed control at 500 g/ha stood at 90%.
As to `Cn1cc(C(=O)NS(=O)(=O)c2ccccc2Cl)nc1-c1ccccc1Cl` [Example 225], the figures for the pest or weed control at 20 ppm with Meloidogyne incognita and in the assay with Myzus persicae [1] were 80% and 100%, respectively. Also, in the assay on Myzus persicae [2], the pest or weed control at 500 g/ha stood at 100%.
Regarding `COc1ccccc1S(=O)(=O)NC(=O)c1cn(C)c(-c2cccc(Cl)c2Cl)n1` [Example 567], the pest or weed control at 20 ppm in the assay on Meloidogyne incognita came to 90%; in the assay on Myzus persicae [1], 100%. Moreover, in the assay with Myzus persicae [2], the pest or weed control at 500 g/ha worked out at 100%.
On to `COc1ccc(Br)cc1S(=O)(=O)NC(=O)c1cn(C)c(-c2c(F)cccc2Cl)n1` [Example 156], for which the pest or weed control at 20 ppm in the assay on Meloidogyne incognita was determined as 90%; in the assay on Myzus persicae [1] it was 100%. Besides, the pest or weed control at 500 g/ha in the assay on Myzus persicae [2] came to 100%.
`CCc1ccccc1S(=O)(=O)NC(=O)c1cc(C)n(-c2ncccc2Cl)n1` [Example 284]: the pest or weed control at 20 ppm in the assay with Meloidogyne incognita is 90%; with Myzus persicae [1], 100%. For the same molecule, in the assay with Myzus persicae [2], the pest or weed control at 500 g/ha was found to be 100%.
`Cn1cc(C(=O)NS(=O)(=O)c2cccc(Cl)c2)nc1-c1ccccc1Cl` [Example 33]: the pest or weed control at 20 ppm in the assay with Meloidogyne incognita and in the assay on Myzus persicae [1] was 100% in each case. In addition, in the assay with Myzus persicae [2], the pest or weed control at 500 g/ha was determined as 90%.
For `CCc1ccsc1S(=O)(=O)NC(=O)c1cn(C)c(-c2ncccc2Cl)n1` [Example 605], the pest or weed control at 20 ppm with Meloidogyne incognita is 90%; with Myzus persicae [1], 100%. In addition, the pest or weed control at 500 g/ha in the assay on Myzus persicae [2] came to 100%.
As to `CCc1ccccc1S(=O)(=O)NC(=O)c1cn(C)c(-c2cccc(Cl)c2Cl)n1` [Example 553], the pest or weed control at 20 ppm in the assay with Meloidogyne incognita was 90%; with Myzus persicae [1], 100%. The pest or weed control at 500 g/ha with Myzus persicae [2] worked out at 100%.
For `COc1cccc(OC)c1S(=O)(=O)NC(=O)c1cn(C)c(-c2c(F)cccc2F)n1` [Example 378], the pest or weed control at 20 ppm in the assay on Meloidogyne incognita was 90%; in the assay with Myzus persicae [1], 100%. Moreover, the pest or weed control at 100 g/ha in the assay with Myzus persicae [2] (100 g/ha) stood at 90%.
With `CCc1ccccc1S(=O)(=O)NC(=O)c1cn(C)c(-c2cccc3ccccc23)n1` [Example 503], the pest or weed control at 20 ppm in the assay with Meloidogyne incognita is 90%; with Myzus persicae [1] it was 100%. The pest or weed control at 500 g/ha in the assay with Myzus persicae [2] turned out to be 90%.
For `Cn1cc(C(=O)NS(=O)(=O)c2ccccc2)nc1-c1c(Cl)cccc1Cl` [Example 44], the pest or weed control at 20 ppm in the assay on Meloidogyne incognita came to 100%; in the assay with Myzus persicae [1] it was 90%. The pest or weed control at 500 g/ha in the assay with Myzus persicae [2] turned out to be 90%.
As for `Cc1ccc(S(=O)(=O)NC(=O)c2cn(C)c(-c3c(F)cccc3F)n2)c(C)c1` [Example 443], the pest or weed control at 20 ppm in the assay on Meloidogyne incognita and in the assay on Myzus persicae [1] was 100% each time. Besides, in the assay on Myzus persicae [2], the pest or weed control at 500 g/ha was found to be 90%.
Take `Cn1cc(C(=O)NS(=O)(=O)c2ccc(Cl)cc2)nc1-c1ccccc1F` [Example 51]: the pest or weed control at 20 ppm was found to be 100% with Meloidogyne incognita and 90% with Myzus persicae [1]. For the same molecule, the pest or weed control at 500 g/ha with Myzus persicae [2] was 90%.
In the case of `Cc1c(C(=O)NS(C)(=O)=O)nc(-c2ccccc2Cl)n1C` [Example 71], the pest or weed control at 20 ppm with Meloidogyne incognita turned out to be 90%; with Myzus persicae [1], 100%. In the assay on Myzus persicae [2], the pest or weed control at 500 g/ha was 90%.
For the molecule `CCSc1cccc(Cl)c1S(=O)(=O)NC(=O)c1cn(C)c(-c2c(F)cccc2F)n1` [Example 179], the pest or weed control at 20 ppm in the assay with Meloidogyne incognita was 90%; with Myzus persicae [1], 100%. For the same molecule, the pest or weed control at 500 g/ha in the assay on Myzus persicae [2] was found to be 90%.
Take `COc1ccc(Cl)c(S(=O)(=O)NC(=O)c2nc(-c3ccccc3Cl)n(C)n2)c1` [Example 15]: the pest or weed control at 20 ppm in the assay on Meloidogyne incognita turned out to be 90%; in the assay with Myzus persicae [1] it was 100%. Further, in the assay on Myzus persicae [2], the pest or weed control at 500 g/ha was 90%.
Consider `Cn1cc(C(=O)NS(=O)(=O)c2ccc(Cl)cc2)nc1-c1c(F)cccc1Cl` [Example 114], for which the pest or weed control at 20 ppm in the assay on Meloidogyne incognita and in the assay with Myzus persicae [1] was 100% each time. In the assay on Myzus persicae [2], the pest or weed control at 500 g/ha was 90%.
For `CCc1ccccc1S(=O)(=O)NC(=O)c1cc(OC)n(-c2ccccc2Cl)n1` [Example 281], the pest or weed control at 20 ppm in the assay with Meloidogyne incognita and in the assay with Myzus persicae [1] was 100% throughout. Also, the pest or weed control at 500 g/ha with Myzus persicae [2] amounted to 90%.
Turning to `Cn1cc(C(=O)NS(=O)(=O)c2cc(Cl)cnc2Cl)nc1-c1c(F)cccc1F` [Example 343], the pest or weed control at 20 ppm in the assay with Meloidogyne incognita and in the assay on Myzus persicae [1] was 90% each time. For the same molecule, the pest or weed control at 500 g/ha in the assay on Myzus persicae [2] worked out at 100%.
On to `Cn1cc(C(=O)NS(=O)(=O)c2c(Cl)cccc2C(F)(F)F)nc1-c1ncccc1Cl` [Example 600], for which the pest or weed control at 20 ppm with Meloidogyne incognita and in the assay with Myzus persicae [1] was 100% throughout. Further, the pest or weed control at 500 g/ha in the assay with Myzus persicae [2] was 100%.
For `Cn1nc(C(=O)NS(=O)(=O)c2c(Cl)cccc2Cl)nc1-c1c(F)cccc1F` [Example 13], the pest or weed control at 20 ppm with Meloidogyne incognita was 90%; with Myzus persicae [1] it was 100%. Also, in the assay with Myzus persicae [2], the pest or weed control at 500 g/ha came out at 100%.
Regarding `Cn1cc(C(=O)NS(=O)(=O)c2ccccc2OC(F)(F)F)nc1-c1c(F)cccc1F` [Example 118], the results for the pest or weed control at 20 ppm in the assay on Meloidogyne incognita and in the assay with Myzus persicae [1] were 90% and 100%, respectively. Besides, the pest or weed control at 500 g/ha in the assay on Myzus persicae [2] came out at 100%.
With `Cn1cc(C(=O)NS(=O)(=O)c2c(Cl)cccc2Cl)nc1-c1ccccc1F` [Example 96], the pest or weed control at 20 ppm in the assay with Meloidogyne incognita and in the assay on Myzus persicae [1] was 100% throughout. For the same molecule, the pest or weed control at 500 g/ha in the assay on Myzus persicae [2] turned out to be 100%.
With `CC(C)Nc1cccc(F)c1S(=O)(=O)NC(=O)c1cn(C)c(-c2c(F)cccc2F)n1` [Example 178], the pest or weed control at 20 ppm in the assay with Meloidogyne incognita and in the assay on Myzus persicae [1] was 100% throughout. The pest or weed control at 500 g/ha with Myzus persicae [2] is 90%.
